The record followed here is ChEMBL document CHEMBL3769402, “Discovery of novel N,N-3-phenyl-3-benzylaminopropionanilides as potent inhibitors of cholesteryl ester transfer protein in vivo” (Bioorg Med Chem, 2016).

Structures are written as SMILES.

Data set [1] deals with T1, Cholesteryl ester transfer protein (Homo sapiens, UniProt P11597).
T1 sequence (P11597 whole entry): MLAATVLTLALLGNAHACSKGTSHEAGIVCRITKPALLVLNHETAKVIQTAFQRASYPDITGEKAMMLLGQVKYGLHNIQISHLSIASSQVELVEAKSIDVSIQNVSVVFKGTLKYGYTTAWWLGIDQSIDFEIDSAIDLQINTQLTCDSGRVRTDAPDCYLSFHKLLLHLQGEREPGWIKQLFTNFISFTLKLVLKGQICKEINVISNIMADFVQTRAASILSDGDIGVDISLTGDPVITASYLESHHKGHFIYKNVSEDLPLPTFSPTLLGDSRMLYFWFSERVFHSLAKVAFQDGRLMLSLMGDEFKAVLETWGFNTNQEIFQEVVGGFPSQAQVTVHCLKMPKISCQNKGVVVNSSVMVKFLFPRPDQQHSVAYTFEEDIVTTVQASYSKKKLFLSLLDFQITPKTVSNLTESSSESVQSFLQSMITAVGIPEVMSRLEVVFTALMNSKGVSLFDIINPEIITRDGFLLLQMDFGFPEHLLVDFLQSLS
The data set can be described thus: Inhibition of full-length human recombinant CETP expressed in CHO cells by BODIPY-CE dye based fluorescence assay. It counts as cell-based.

For data set [2], the system named is Syrian golden hamster. The data set can be described thus: Decrease in LDL-cholesterol level in high cholesterol/lipid diet fed golden syrian hamster at 100 mg/kg/day, po for 4 weeks. It counts as functional. The note with it: Mesocricetus auratus, 672 h.
The subject of data set [3] is Syrian golden hamster. The data set can be described thus: Decrease in LDL-cholesterol level in high cholesterol/lipid diet fed golden syrian hamster at 50 mg/kg/day, po for 4 weeks. Format: functional. The following applies: Mesocricetus auratus, 672 h.
The test system of data set [4] is Syrian golden hamster. The data set can be described thus: Decrease in LDL-cholesterol level in high cholesterol/lipid diet fed po dosed golden syrian hamster administered daily for 4 weeks. Format: functional, organism-based. The following applies: Mesocricetus auratus.
The subject of data set [5] is Syrian golden hamster. The data set can be described thus: Increase in HDL-cholesterol level in high cholesterol/lipid diet fed golden syrian hamster at 20 mg/kg/day, po for 4 weeks. It counts as functional, Mesocricetus auratus.
Data set [6] deals with Syrian golden hamster. The data set can be described thus: Decrease in LDL-cholesterol level in high cholesterol/lipid diet fed golden syrian hamster at 20 mg/kg/day, po for 4 weeks. Format: functional. The note with it: Mesocricetus auratus, 672 h.
Data set [7] has as its system Syrian golden hamster. The data set can be described thus: Increase in HDL-cholesterol level in high cholesterol/lipid diet fed golden syrian hamster at 100 mg/kg/day, po for 4 weeks. Format: functional, Mesocricetus auratus.
For data set [8], the system named is Syrian golden hamster. The data set can be described thus: Increase in HDL-cholesterol level in high cholesterol/lipid diet fed po dosed golden syrian hamster administered daily for 4 weeks. It counts as functional, organism-based. The note with it: Mesocricetus auratus.
The test system of data set [9] is CYP450. The data set can be described thus: Drug metabolism in KM rat liver microsomes assessed as CYP450 mediated compound reduction at 100 uM after 17.1 min by LC-MS/MS analysis in presence of NADPH. It counts as ADME. The note with it: read-out: Drug metabolism.
The test system of data set [10] is Syrian golden hamster. The data set can be described thus: Toxicity in golden syrian hamster assessed as mortality at 20 to 100 mg/kg/day, po for 4 weeks. Format: organism-based, Mesocricetus auratus. The following applies: in vivo, 672 h.
Data set [11] has as its system CYP450. The data set can be described thus: Drug metabolism in KM rat liver microsomes assessed as CYP450 mediated compound oxidation at 100 uM after 17.1 min by LC-MS/MS analysis in presence of NADPH. The following applies: read-out: Drug metabolism. It counts as ADME. Background: Microsomes from liver hold many membrane-bound enzymes, among them those of drug oxidation.

In data set [12] the test system is Syrian golden hamster. The data set can be described thus: Increase in HDL-cholesterol level in high cholesterol/lipid diet fed golden syrian hamster at 50 mg/kg/day, po for 4 weeks. Format: functional, Mesocricetus auratus.

With `CCOC(=O)c1ccc(NC(=O)CCN(Cc2cc(C(F)(F)F)cc(C(F)(F)F)c2)c2ccc(Cl)c(Cl)c2)cc1`, the IC50 in data set [1] amounted to 5.4 µM.

For `CCOC(=O)c1ccc(N2CCN(C(=O)CCN(Cc3ccc(F)cc3)c3cccc(Oc4ccccc4)c3)CC2)cc1`, the IC50 in data set [1] is 0.69 µM.

Compound `CCOC(=O)c1ccc(NC(=O)CCN(c2cccc(Oc3ccccc3)c2)S(=O)(=O)c2ccc(F)cc2)cc1` returned an inhibition in vivo at 100 mg/kg/day in the data set on Syrian golden hamster [2] of 45.8%. This compound registered an inhibition in vivo at 50 mg/kg/day in the data set on Syrian golden hamster [3] of 36.2%. Besides, the inhibition entry in the data set on Syrian golden hamster [4] was “Dose-dependent effect”. In addition, in [1], the IC50 is 0.15 µM. The Activity was 16.2% in the data set on Syrian golden hamster [5]; 48.2% in the data set with Syrian golden hamster [7]; “Dose-dependent effect” in the data set on Syrian golden hamster [8]; “Non-toxic” in the data set on Syrian golden hamster [10]; 34.7% in the data set with Syrian golden hamster [12]. The compound also displayed an inhibition in vivo at 20 mg/kg/day in the data set with Syrian golden hamster [6] of 19.3%. In addition, the metabolised at 0.285 h, 100 µM with CYP450 [9] and in the data set on CYP450 [11] was 36% in each case.

On to `COc1ccc(N2CCN(C(=O)CCN(Cc3ccc(F)cc3)c3ccc(Cl)c(Cl)c3)CC2)cc1`, for which, in [1], the IC50 was 4.9 µM.

As to `CCOC(=O)c1ccc(N2CCN(C(=O)CCN(Cc3ccc(C(F)(F)F)cc3)c3ccc(Cl)c(Cl)c3)CC2)cc1`, the IC50 in [1] came out at 18.2 µM.

As to `COc1ccc(N2CCN(C(=O)CCN(Cc3ccc(F)cc3)c3ccc(Oc4ccccc4)cc3)CC2)cc1`, in [1], the IC50 was above 50 µM.

Take `CCOC(=O)c1ccc(NC(=O)CCN(c2cc(Cl)cc(-c3ccccc3)c2)S(=O)(=O)c2ccc(F)cc2)cc1`: the IC50 in data set [1] was found to be 2.3 µM.

As for `CCOC(=O)c1ccc(N2CCN(C(=O)CCN(Cc3ccc(F)cc3)c3ccc(Oc4ccccc4)cc3)CC2)cc1`, in [1], the IC50 stood at 6.7 µM.

With `CCOC(=O)c1ccc(N2CCN(C(=O)CCN(Cc3ccc(F)cc3)c3ccc(Cl)c(-c4ccccc4)c3)CC2)cc1`, the IC50 in [1] was 2.9 µM.

Take `CCOC(=O)c1ccc(NC(=O)CCN(Cc2ccc(F)cc2)c2ccc(Cl)c(-c3ccccc3)c2)cc1`: the IC50 in [1] is 2.7 µM.

Consider `CCOC(=O)c1ccc(NC(=O)CCN(Cc2ccc(C(F)(F)F)cc2)c2ccc(Cl)c(Cl)c2)cc1`, for which, in data set [1], the IC50 came out at 9.5 µM.

As for `CCOC(=O)c1ccc(N2CCN(C(=O)CCN(Cc3ccc(F)cc3)c3ccc(Cl)c(Cl)c3)CC2)cc1`, in data set [1], the IC50 was found to be 12.4 µM.

On to `O=C(CCN(Cc1ccc(F)cc1)c1ccc(Cl)c(Cl)c1)Nc1ccc(C(=O)O)cc1`, for which, in data set [1], the IC50 amounted to 9.1 µM.

In the case of `CCOC(=O)c1ccc(NC(=O)CCN(Cc2ccc(F)cc2)c2cccc(Oc3ccccc3)c2)cc1`, the IC50 in data set [1] stood at 0.24 µM.

For the compound `CCOC(=O)c1ccc(NC(=O)CCN(c2ccc(Cl)c(-c3ccccc3)c2)S(=O)(=O)c2ccc(F)cc2)cc1`, the IC50 in data set [1] is 1.3 µM.

In the case of `CCOC(=O)c1ccc(NC(=O)CCN(Cc2ccc(F)cc2)c2ccc(-c3ccccc3)cc2)cc1`, the IC50 in [1] is 16.7 µM.

In the case of `CCOC(=O)c1ccc(NC(=O)CCN(Cc2ccc(F)cc2)c2cc(Cl)cc(-c3ccccc3)c2)cc1`, in [1], the IC50 is 3.4 µM.

Turning to `CCOC(=O)c1ccc(NC(=O)CCN(Cc2ccc(F)cc2)c2ccc(Cl)c(Cl)c2)cc1`, the IC50 in [1] is 2 µM.

In general, IC50 refers to the concentration at which inhibition is half-maximal. As usually defined, the inhibition in vivo is the relative decrease from the control value, in per cent. A high value points to strong suppression.
